# Source: patent US9493466B2, “Treatment of cancer with TOR kinase inhibitors” (Signal Pharmaceuticals, LLC, priority 2011, dated 2016)
# System: NCI-H929 tumor
# Assay: Human plasma cell myeloma (NCI-H929) study
# Format: in vivo, SCID mice
# Conditions: FIG. 19
# Excerpt: Human Plasma Cell Myeloma (NCI-H929) Study. Female SCID mice (Fox Chase SCID®, CB17/Icr-Prkce^scid, Charles River) were 8 weeks old at the beginning of the study. The animals were fed ad libitum water (reverse osmosis, 1 ppm Cl) and NIH 31 Modified and Irradiated Lab Diet® consisting of 18.0% crude protein, 5.0% crude fat, and 5.0% crude fiber. […]
# The NCI-H929 tumor cells used for implantation were harvested during log phase growth and resuspended at a concentration of 5×10^7 cells/mL in 50% Matrigel (BD Biosciences). […] Tumor size, in mm^3, was calculated from: […]
# Compound 1 was administered via oral gavage (p.o.) once daily for twenty-eight days (qd×28). Treatment efficacy was determined from the calculated tumor volumes on Day 12. MTV(n), the median tumor volume for the number of animals, n, evaluable on the day of analysis, was determined for each group. Percent tumor growth inhibition (% TGI) was defined as the difference between the MTV of the control group and the MTV of the drug-treated group, expressed as a percentage of the MTV of the control group: […]
# Each animal was to be euthanized when its neoplasm reached the endpoint volume (2000 mm^3). For each animal whose tumor reached the endpoint volume, the time to endpoint (TTE) was calculated by the following equation: […]
structure (smiles),measurement,setting,value
"CO[C@H]1CC[C@H](N2C(=O)CNc3ncc(-c4ccc(C(C)(C)O)nc4)nc32)CC1 [Compound 1, 7-(6-(2-hydroxypropan-2-yl)pyridin-3-yl)-1-((1r,4r)-4-methoxycyclohexyl)-3,4-dihydropyrazino-[2,3-b]pyrazin-2(1H)-one]",tumor growth delay,3 mg/kg and 10 mg/kg p.o. qd×28,Significant tumor growth delay
same,tumor growth inhibition,10 mg/kg p.o. qd×28,Significant tumor growth inhibition
